Consider two molecules from PubChem BioAssay AID290 (DTP/NCI, 2004).

This experiment has as its system mice, P1798 lymphosarcoma sc, survival or tumor weight T/C. As to the kind of experiment: NCI In Vivo Anticancer Drug Screen. Data for tumor model P1798 Lymphosarcoma (subcutaneous) in unknown mice. On the procedure:
The antitumor activity of compounds was measured in mice bearing transplantable tumors. Survival or tumor size were measured and the results are expressed as the measurement made in the treated group (T) divided by the measurement made in the vehicle treated control group (C). The tumor model used in this assay is P1798 Lymphosarcoma (subcutaneous) in unknown mice

Molecules are shown by their SMILES. Several values for one entry are separate records, joined by “and”; a condition that tells them apart may be missing. Equal values may be shown once. Records with an inconclusive call do not appear.

For `C[C@]12C=CC(=O)C=C1CC[C@@H]1[C@@H]2C(=O)C[C@@]2(C)[C@H]1CC[C@]2(O)C(=O)CO`, the T/C (endpoint: mean tumor weight, dose: 0.31 mg/kg/injection, schedule: Q01DX010 (sc), vehicle: steriod suspending solution, higher = larger tumour) was 81 % of control; the T/C (endpoint: mean tumor weight, dose: 0.62 mg/kg/injection, schedule: Q01DX010 (sc), vehicle: steriod suspending solution, higher = larger tumour) is 124 % of control; the T/C (endpoint: mean tumor weight, dose: 3.1 mg/kg/injection, schedule: Q01DX010 (sc), vehicle: steriod suspending solution, higher = larger tumour) was 82 % of control; the T/C (endpoint: mean tumor weight, dose: 5.0 mg/kg/injection, schedule: Q01DX010 (sc), vehicle: steriod suspending solution, higher = larger tumour) is 59 % of control; the T/C (endpoint: mean tumor weight, dose: 6.25 mg/kg/injection, schedule: Q01DX010 (sc), vehicle: steriod suspending solution, higher = larger tumour) was 99 % of control; the T/C (endpoint: mean tumor weight, dose: 10.0 mg/kg/injection, schedule: Q01DX010 (sc), vehicle: steriod suspending solution, higher = larger tumour) is 83 % of control. Moreover, the T/C was 105 % of control (endpoint: mean tumor weight, dose: 10.0 mg/kg/injection, schedule: Q01DX010 (sc), vehicle: water, higher = larger tumour); 68 % of control and 74 % of control (endpoint: mean tumor weight, dose: 20.0 mg/kg/injection, schedule: Q01DX010 (sc), vehicle: steriod suspending solution, higher = larger tumour); 108 % of control (endpoint: mean tumor weight, dose: 20.0 mg/kg/injection, schedule: Q01DX010 (sc), vehicle: water, higher = larger tumour); 100 % of control (endpoint: mean tumor weight, dose: 40.0 mg/kg/injection, schedule: Q01DX010 (sc), vehicle: water, higher = larger tumour); 87 % of control (endpoint: mean tumor weight, dose: 60.0 mg/kg/injection, schedule: Q01DX001 (sc), vehicle: steriod suspending solution, higher = larger tumour); 34 % of control (endpoint: mean tumor weight, dose: 120.0 mg/kg/injection, schedule: Q01DX001 (sc), vehicle: steriod suspending solution, higher = larger tumour). Moreover, the T/C (endpoint: median survival time, dose: 2.34 mg/kg/injection, schedule: Q01DX029 (ip), vehicle: saline, higher = longer survival) is 82 % of control; the T/C (endpoint: median survival time, dose: 4.67 mg/kg/injection, schedule: Q01DX025 (ip), vehicle: saline, higher = longer survival) was 96 % of control; the T/C (endpoint: median survival time, dose: 9.35 mg/kg/injection, schedule: Q01DX025 (ip), vehicle: saline, higher = longer survival) was 100 % of control; the T/C (endpoint: median survival time, dose: 9.35 mg/kg/injection, schedule: Q01DX029 (ip), vehicle: saline, higher = longer survival) is 98 % of control; the T/C (endpoint: median survival time, dose: 9.37 mg/kg/injection, schedule: Q01DX029 (ip), vehicle: saline, higher = longer survival) is 89 % of control; the T/C (endpoint: median survival time, dose: 18.7 mg/kg/injection, schedule: Q01DX025 (ip), vehicle: saline, higher = longer survival) was 88 % of control. In addition, the T/C is 101 % of control (endpoint: median survival time, dose: 18.75 mg/kg/injection, schedule: Q01DX010 (ip), vehicle: saline, higher = longer survival); 75 % of control (endpoint: median survival time, dose: 37.5 mg/kg/injection, schedule: Q01DX025 (ip), vehicle: saline, higher = longer survival); 153 % of control (endpoint: median survival time, dose: 75.0 mg/kg/injection, schedule: Q01DX010 (sc), vehicle: saline, higher = longer survival); 59 % of control (endpoint: median survival time, dose: 75.0 mg/kg/injection, schedule: Q01DX025 (ip), vehicle: saline, higher = longer survival); 47 % of control (endpoint: median survival time, dose: 150.0 mg/kg/injection, schedule: Q01DX010 (sc), vehicle: saline, higher = longer survival); 46 % of control (endpoint: median survival time, dose: 150.0 mg/kg/injection, schedule: Q01DX025 (ip), vehicle: saline, higher = longer survival). Also, the T/C (endpoint: median survival time, dose: 150.0 mg/kg/injection, schedule: Q01DX029 (ip), vehicle: saline, higher = longer survival) is 42 % of control; the T/C (endpoint: median survival time, dose: 300.0 mg/kg/injection, schedule: Q01DX010 (sc), vehicle: saline, higher = longer survival) is 39 % of control; the T/C (endpoint: median survival time, dose: 600.0 mg/kg/injection, schedule: Q01DX010 (sc), vehicle: saline, higher = longer survival) is 34 % of control.

For the molecule `S=c1nc[nH]c2nc[nH]c12`, the T/C was 103 % of control (endpoint: mean tumor weight, dose: 3.12 mg/kg/injection, schedule: Q01DX010 (ip), vehicle: other, higher = larger tumour); 83 % of control (endpoint: mean tumor weight, dose: 6.25 mg/kg/injection, schedule: Q01DX010 (ip), vehicle: other, higher = larger tumour); 74 % of control and 77 % of control and 88 % of control (endpoint: mean tumor weight, dose: 12.5 mg/kg/injection, schedule: Q01DX010 (ip), vehicle: other, higher = larger tumour); 45 % of control (endpoint: mean tumor weight, dose: 18.7 mg/kg/injection, schedule: Q01DX010 (ip), vehicle: other, higher = larger tumour); 92 % of control (endpoint: mean tumor weight, dose: 34.0 mg/kg/injection, schedule: Q01DX001 (ip), vehicle: carboxymethylcellulose (CMC), higher = larger tumour).
